Test results: patent US9845310B2 (priority 2015, dated 2017)

Test system: naive Sprague Dawley rat hearts
Conditions: ex vivo isolated perfused rat heart, percent change over vehicle; for Isolated Heart Assay dP/dtmax(%): contractility; for Isolated Heart Assay dP/dtmin(%): relaxation (lusitropic)

Structure (SMILES)	Isolated Heart Assay dP/dtmax(%)	Isolated Heart Assay dP/dtmin(%)
COc1cccc(-c2nnc(NS(=O)(=O)[C@@H](C)[C@H](OC)c3ncc(C)cn3)n2-c2cccnc2OC)n1 (atropisomer, axis not shown) [Example 741.0, (1R,2S, P)-1-methoxy-N-(4-(2-methoxy-3-pyridinyl)-5-(6-methoxy-2-pyridinyl)-4H-1,2,4-triazol-3-yl)-1-(5-methyl-2-pyrimidinyl)-2-propanesulfonamide and (1R,2S, M)-1-methoxy-N-(4-(2-methoxy-3-pyridinyl)-5-(6-methoxy-2-pyridinyl)-4H-1,2,4-triazol-3-yl)-1-(5-methyl-2-pyrimidinyl)-2-propanesulfonamide]	1.4%	6.6%
COc1cccc(OC)c1-n1c(NS(=O)(=O)[C@@H](C)[C@H](C)c2ncc(F)cn2)nnc1-c1cccnc1 (racemic) [Example 184.0, (2R,3S)-N-(4-(2,6-dimethoxyphenyl)-5-(3-pyridinyl)-4H-1,2,4-triazol-3-yl)-3-(5-fluoro-2-pyrimidinyl)-2-butanesulfonamide or (2S,3R)-N-(4-(2,6-dimethoxyphenyl)-5-(3-pyridinyl)-4H-1,2,4-triazol-3-yl)-3-(5-fluoro-2-pyrimidinyl)-2-butanesulfonamide]	14.5%	14.0%
COc1cccc(OC)c1-n1c(NS(=O)(=O)[C@H](C)[C@@H](OC)c2ccc(Cl)cn2)nnc1-c1cccnc1 (single isomer, unassigned) [Example 531.0, (1S,2R)-1-(5-chloro-2-pyridinyl)-N-(4-(2,6-dimethoxyphenyl)-5-(3-pyridinyl)-4H-1,2,4-triazol-3-yl)-1-methoxy-2-propanesulfonamide or (1R,2S)-1-(5-chloro-2-pyridinyl)-N-(4-(2,6-dimethoxyphenyl)-5-(3-pyridinyl)-4H-1,2,4-triazol-3-yl)-1-methoxy-2-propanesulfonamide]	4.1%	1.9%
COc1cccc(OC)c1-n1c(NS(=O)(=O)[C@H](C)[C@@H](O)c2cnc(C)cn2)nnc1-c1cncc(C)c1 (single isomer, unassigned) [Example 569.0, (1S,2R)-N-(4-(2,6-dimethoxyphenyl)-5-(5-methyl-3-pyridinyl)-4H-1,2,4-triazol-3-yl)-1-hydroxy-1-(5-methyl-2-pyrazinyl)-2-propanesulfonamide or (1R,2S)-N-(4-(2,6-dimethoxyphenyl)-5-(5-methyl-3-pyridinyl)-4H-1,2,4-triazol-3-yl)-1-hydroxy-1-(5-methyl-2-pyrazinyl)-2-propanesulfonamide]	12.4%	12.7%
COc1cccc(OC)c1-n1c(NS(=O)(=O)[C@H](C)[C@@H](OC)c2cnc(C)cn2)nnc1-c1cncc(C)c1 (single isomer, unassigned) [Example 571.0, (1S,2R)-N-(4-(2,6-dimethoxyphenyl)-5-(5-methyl-3-pyridinyl)-4H-1,2,4-triazol-3-yl)-1-methoxy-1-(5-methyl-2-pyrazinyl)-2-propanesulfonamide or (1R,2S)-N-(4-(2,6-dimethoxyphenyl)-5-(5-methyl-3-pyridinyl)-4H-1,2,4-triazol-3-yl)-1-methoxy-1-(5-methyl-2-pyrazinyl)-2-propanesulfonamide]	13.3%	18.8%
COc1cnc([C@H](O)[C@@H](C)S(=O)(=O)Nc2nnc(-c3cccnc3)n2-c2c(OC)cccc2OC)cn1 (single isomer, unassigned) [Example 706.0, (1S,2R)-N-(4-(2,6-dimethoxyphenyl)-5-(3-pyridinyl)-4H-1,2,4-triazol-3-yl)-1-hydroxy-1-(5-methoxy-2-pyrazinyl)-2-propanesulfonamide or (1R,2S)-N-(4-(2,6-dimethoxyphenyl)-5-(3-pyridinyl)-4H-1,2,4-triazol-3-yl)-1-hydroxy-1-(5-methoxy-2-pyrazinyl)-2-propanesulfonamide]	9.1%	4.0%
